Assay results reported in article PMC10454375, “Cell-Impermeable Inhibitors Confirm That Intracellular Human Transglutaminase 2 Is Responsible for the Transglutaminase-Associated Cancer Phenotype” (International Journal of Molecular Sciences, 2023).
Peptide text beside a SMILES is read from it. * marks the point of attachment. X1 = C=CC(=O)NCCCCC(NC(=O)OCc1ccccc1)C(=O)N1CCN(C(=O)C(CCC(=O)*)NC(=O)c2cccc3ccccc23)CC1

How the values were obtained:
MDA-MB-231 cells = assay: Cell proliferation assay, MDA-MB-231; format: cell-based; conditions: concentrations up to 100 µM, 48 h
Procedure: (§1) MDA-MB-468 cells were cultured in Dulbecco’s Modified Eagle Medium (DMEM)/F-12 DMEM, Gibco Laboratories, New York, NY, USA), 10% FBS (Gibco Laboratories, New York, NY, USA), 50 U/mL penicillin, and 50 μg/mL streptomycin (Gibco Laboratories, New York, NY, USA), while MDA-MB-231 and MDA-MB-436 cells were cultured in DMEM High Glucose with/stable L-Glutamine (EuroClone, Pero, MI, Italy), 10% FBS, and antibiotics, all grown at 37 °C and in 5% CO2 humidified atmosphere.
(§2) The compounds were added to the cultures at the concentrations of 25, 50, 75, and 100 μM and 0.1% DMSO represented the negative control. After 48 h, the cells were trypsinized for 2 min at 37 °C, trypsin was inactivated using 1 mL of the recovered supernatants (containing 10% FBS), centrifuged at room temperature 5 min at 1200 rpm, washed with PBS and resuspended in complete medium. Finally, 50 μL of cells were diluted in 500 μL of Count & Viability Reagent (Luminex, Prodotti Gianni, Milan, Italy) and analyzed by MUSE®.
(§3) The experiments were carried out in triplicate and the average ± SD of the percentage of living cells was reported. Statistical analysis was performed calculating p value by a Student’s t-test, two-tailed, with homovariance and significance expressed by (*) p value < 0.05.
(§4) Supplementary cellular evaluation figures
(§5) Concentration (µM) Concentration (µM)
(§6) Figure S10. […]

MDA-MB-436 cells [1] = assay: Cell proliferation assay, MDA-MB-436; format: cell-based; conditions: concentrations up to 100 µM, 48 h
Procedure: as §1, §2
The experiments were carried out in triplicate and the average ± SD of the percentage of living cells was reported. […]
Figure 4 Treatment of cancer cells with cell-permeable and cell-impermeable inhibitors. […] NCEG-RHB localization is detected adjacent to the nuclei (N) in both cell types and is indicated by red arrows. […]

MDA-MB-468 cells = assay: Cell proliferation assay, MDA-MB-468; format: cell-based; conditions: concentrations up to 100 µM, 48 h
Procedure: as §1, §2, §3, §4, §5, §6

HaCaT cells = assay: Cell proliferation, HaCaT; format: cell-based, human; conditions: concentrations up to 100 µM
Procedure: (§7) Figure 4 Treatment of cancer cells with cell-permeable and cell-impermeable inhibitors. (A) HaCaT and SCC-13 are epidermis-derived cutaneous squamous cell carcinoma cells that were treated for 10 h with NCEG-RHB prior to imaging using a spinning disc confocal microscope. NCEG-RHB localization is detected adjacent to the nuclei (N) in both cell types and is indicated by red arrows. The HaCaT cell cultures were also stained for 15 min with MitoTracker Green before imaging. MitoTracker Green detects mitochondria membrane proteins inside the cell and the labelling is indicated by green arrows. White scale bars = 100 µm. (B) SCC-13 cells treated with cell-impermeable inhibitor 18 (NCEG2) and cell-permeable inhibitors NC9, AA9, and NCEG-RHB. Scale bars represent 50 µm; (*) p value < 0.001 (C) HaCaT cells treated with cell-impermeable inhibitor 18 (NCEG2) and cell-permeable inhibitors NC9 and AA9. Scale bars represent 50 µm; (*) p value < 0.001. (D) MDA-MB-436 cells treated with cell-impermeable 18 (NCEG2) and with cell-permeable inhibitors NC9, AA9 and NCEG-RHB. Experiments were carried out in triplicate and are represented as average ± SD of the percentage of living cells; (**) p value < 0.01.

SCC-13 cells = assay: Cell proliferation, SCC-13; format: cell-based, human; conditions: concentrations up to 100 µM
Procedure: as §7

MDA-MB-436 cells [2] = assay: Real-time cell migration assay (xCELLigence RTCA), MDA-MB-436; format: cell-based; conditions: 25 µM, 24 h
Procedure: We assayed the motility of MDA-MB-436 cells in the presence of vehicle or TG2 inhibitors 18 (NCEG2), 19 (NCEG-RHB), and NC9 at 25 μM concentration with the xCELLigence RTCA system (Real-Time Cell Analyzer System, Acea Biosciences Inc., San Diego, CA, USA). About 3 × 10^5 cells/wells were put into the top chambers of CIM-16 plates and the bottom chambers were filled with medium containing 5% FBS (Gibco Laboratories, New York, NY, USA) as a chemoattractant. Signal detection was done every 15 min for 24 h and each determination was performed in triplicate. Impedance values were expressed as a dimensionless parameter (Cell Index, CI), and values greater than 0.1 were considered positive. The rate of cell migration was also quantified by calculating the steepness, inclination, gradient, and changing rate of the CI curves over time (Slope).
A Vehicle B 0.025 Vehicle
C 2.5 Vehicle D 0.15 Vehicle
Figure S11. Migration assay: A) Dynamic monitoring of the migration of MDA-MB-436 cells.
We recorded for 24 hours the migration of the cells in the presence only of the vehicle or of the indicated TG2 inhibitors, used at 25 µM concentrations. Data are reported as Cell Index (CI) values ± SD. […] We recorded for 24 hours the migration of the cells in the presence only of the vehicle or of the indicated TG2 inhibitors, used at 25 µM concentrations. […]

## C=CC(=O)NCCCCC(NC(=O)OCc1ccccc1)C(=O)N1CCN(C(=O)C(CCC(=O)NCC(=O)NCC(=O)NCC(=O)NC(CC(=O)O)C(=O)NC(CC(=O)O)C(=O)NC(CC(=O)O)C(=O)O)NC(=O)c2cccc3ccccc23)CC1 (stereo not drawn) [Compound 18] (X1-GGGDDD-OH; configuration not given here)
MDA-MB-231 cells
  effect on cell proliferation: did not have any effect on cell proliferation
MDA-MB-436 cells [1]
  effect on cell proliferation: did not have any effect on cell proliferation
MDA-MB-468 cells
  effect on cell proliferation: did not have any effect on cell proliferation
HaCaT cells
  effect on cell proliferation: did not have any effect on cell proliferation
SCC-13 cells
  effect on cell proliferation: did not have any effect on cell proliferation
MDA-MB-436 cells [2]
  effect on cell migration: failed to suppress migration
